# Reference: PMC5101133 (Nature biotechnology, 2016)
# Tests used:
# Assay in all cases: NADH fluorescence
# Assay type in all cases: biochemical
# Details in all cases: 1 mM NAD+, 50 mM Tris pH 8.0, 150 mM NaCl, 0.1% Triton X-100
# [1] = target: T1, Hfd1p^CΔ25 (MBP-Hfd1^CΔ25) (Saccharomyces cerevisiae, UniProt Q04458)
# T1 sequence (Q04458 1-507): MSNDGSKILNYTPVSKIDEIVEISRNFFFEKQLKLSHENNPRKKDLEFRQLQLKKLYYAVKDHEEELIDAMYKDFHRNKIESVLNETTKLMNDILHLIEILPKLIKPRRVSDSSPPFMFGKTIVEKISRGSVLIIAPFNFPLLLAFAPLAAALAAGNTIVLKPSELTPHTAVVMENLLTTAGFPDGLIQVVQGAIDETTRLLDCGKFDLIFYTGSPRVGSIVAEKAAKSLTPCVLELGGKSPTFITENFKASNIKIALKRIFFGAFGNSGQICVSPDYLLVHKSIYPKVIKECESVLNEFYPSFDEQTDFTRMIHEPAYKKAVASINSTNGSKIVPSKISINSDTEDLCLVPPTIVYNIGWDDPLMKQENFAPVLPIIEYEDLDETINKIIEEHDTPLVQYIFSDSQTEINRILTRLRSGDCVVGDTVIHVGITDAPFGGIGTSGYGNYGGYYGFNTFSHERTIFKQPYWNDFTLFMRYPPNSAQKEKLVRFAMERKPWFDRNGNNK
# ALDH3A2^CΔ25 (FALDH) = ALDH3A2^CΔ25 (FALDH) (Homo sapiens, UniProt P51648)
# Sequence of ALDH3A2^CΔ25 (FALDH) (P51648 1-460, stated change not applied): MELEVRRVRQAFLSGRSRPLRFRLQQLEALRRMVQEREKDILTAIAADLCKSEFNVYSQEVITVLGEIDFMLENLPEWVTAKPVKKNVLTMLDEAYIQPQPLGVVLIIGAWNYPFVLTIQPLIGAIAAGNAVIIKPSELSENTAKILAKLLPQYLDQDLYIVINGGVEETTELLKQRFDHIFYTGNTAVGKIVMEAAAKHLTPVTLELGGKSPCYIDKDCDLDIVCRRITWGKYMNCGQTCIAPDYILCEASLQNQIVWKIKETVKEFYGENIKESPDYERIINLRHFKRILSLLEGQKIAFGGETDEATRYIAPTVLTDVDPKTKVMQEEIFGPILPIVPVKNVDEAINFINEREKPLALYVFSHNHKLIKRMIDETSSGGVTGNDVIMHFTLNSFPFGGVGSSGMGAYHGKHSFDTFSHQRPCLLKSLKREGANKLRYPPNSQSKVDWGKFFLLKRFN
# ALDH3A1 = target: T2, ALDH3A1 (Homo sapiens, UniProt P30838)
# T2 sequence (P30838 1-453): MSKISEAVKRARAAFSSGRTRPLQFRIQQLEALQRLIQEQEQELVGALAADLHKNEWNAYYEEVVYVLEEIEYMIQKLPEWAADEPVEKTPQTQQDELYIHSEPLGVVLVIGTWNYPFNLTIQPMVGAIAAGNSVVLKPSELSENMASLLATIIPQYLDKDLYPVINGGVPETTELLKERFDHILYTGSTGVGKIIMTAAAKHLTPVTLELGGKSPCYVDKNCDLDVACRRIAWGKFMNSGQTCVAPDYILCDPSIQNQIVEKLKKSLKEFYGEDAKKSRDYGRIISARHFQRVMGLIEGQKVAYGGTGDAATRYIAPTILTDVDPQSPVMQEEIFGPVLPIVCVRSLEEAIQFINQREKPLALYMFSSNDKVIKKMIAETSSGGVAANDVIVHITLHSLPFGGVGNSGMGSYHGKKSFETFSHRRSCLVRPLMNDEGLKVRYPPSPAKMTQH
SMILES,KM [1],KM (ALDH3A2^CΔ25 (FALDH)),KM (ALDH3A1)
CCCCCCCCCCCCCCCC=O [hexadecanal],"we observed Hfd1p activity in vitro with hexadecanal, similar to that observed with 4-HBz",ALDH3A2 shows a strong substrate preference for hexadecanal over 4-HBz,
O=Cc1ccc(O)cc1 [4-HBz],WT Hfd1p catalyzes NAD^+-dependent dehydrogenation of 4-HBz,,Hfd1p and ALDH3A1 show a preference for 4-HBz
